US20200131476A1, “Differentiation Of Immunocytes Using Pluripotent Stem Cells” (Korea Center For Disease Control And Prevention, priority 2017, published 2020)

Test system: pluripotent stem cells
Experiment: Differentiation of pluripotent stem cells into CD34+CD45+ hematopoietic stem cells (FACS)
Format: cell-based
Description: 1) Pluripotent stem cells were adapted to a matrigel-coated dish and a mTeSR1 medium for 3 weeks, and then other colonies except for 5 colonies in 35 pi dish were removed by pipetting. This is a process for providing space for the proliferation of differentiated cells in the future. At this time, when vitronectin is used as a coating material or mTeSR8 is used as a medium, the differentiation of hematopoietic stem cells or macrophages can be induced.
2) The medium for culturing the stem cells used in 1) above was replaced with APEL medium. […] The differentiation into mesodermal cells was induced rapidly by treating with BMP4 at a high concentration (100 ng/ml) for 2 days and then sequentially at a low concentration (20 ng/ml) for 2 days.
In addition, the efficiency of differentiation of hematopoietic stem cells can be increased by treating with the CDDO methyl ester compound together with BMP4 for 4 days. […]
CD34+ and CD45+ are markers specifically expressed in hematopoietic stem cells. […] In order to confirm this, the amount of expression of the markers specifically expressed in hematopoietic stem cells was measured.
The differentiated cells were monolayered and reacted with the antibodies CD34 and CD45 labeled with fluorescence. […]

Q: Which results are given for `COC(=O)[C@]12CCC(C)(C)C[C@H]1[C@H]1C(=O)C=C3[C@@]4(C)C=C(C#N)C(=O)C(C)(C)[C@@H]4CC[C@@]3(C)[C@]1(C)CC2` [CDDO methyl ester, 2-cyano-3,12-dioxooleana-1,9(11)-dien-28-oic acid methyl ester]?
A: efficiency of differentiation of hematopoietic stem cells, increase (50 nM added together with BMP4 for 4 days, versus no CDDO methyl ester, FIG. 4): about 3 times; yield of hematopoietic stem cells (further treating with the compound in the BMP4 treatment step): improved by three times or more
